In ChEMBL document CHEMBL3621049, “Imidazole derivatives show anticancer potential by inducing apoptosis and cellular senescence” (2014):
Activity calls are given as the source filed them.

Experiments:
Type in all cases: functional, cell-based
RXF 393 = experiment: Growth inhibition of human RXF393 cells at 10 uM by sulforhodamine B assay
MOLT-4 = experiment: Growth inhibition of human MOLT4 cells at 10 uM by sulforhodamine B assay
A498 = experiment: Growth inhibition of human A498 cells at 10 uM by sulforhodamine B assay
OVCAR-8 = experiment: Growth inhibition of human OVCAR8 cells at 10 uM by sulforhodamine B assay
PC-3 = experiment: Growth inhibition of human PC3 cells at 10 uM by sulforhodamine B assay
NCI-H226 = experiment: Growth inhibition of human NCI-H226 cells at 10 uM by sulforhodamine B assay
IGROV-1 = experiment: Growth inhibition of human IGROV1 cells at 10 uM by sulforhodamine B assay
NCI-H322M = experiment: Growth inhibition of human NCI-H322M cells at 10 uM by sulforhodamine B assay
KM12 = experiment: Growth inhibition of human KM12 cells at 10 uM by sulforhodamine B assay
OVCAR-3 = experiment: Growth inhibition of human OVCAR3 cells at 10 uM by sulforhodamine B assay
SK-MEL-2 = experiment: Growth inhibition of human SK-MEL-2 cells at 10 uM by sulforhodamine B assay
NCI-H522 = experiment: Growth inhibition of human NCI-H522 cells at 10 uM by sulforhodamine B assay
SF-295 = experiment: Growth inhibition of human SF295 cells at 10 uM by sulforhodamine B assay
CCRF-CEM = experiment: Growth inhibition of human CCRF-CEM cells at 10 uM by sulforhodamine B assay
Hs-578T = experiment: Growth inhibition of human Hs 578T cells at 10 uM by sulforhodamine B assay
U-251 = experiment: Growth inhibition of human U251 cells at 10 uM by sulforhodamine B assay
K562 = experiment: Growth inhibition of human K562 cells at 10 uM by sulforhodamine B assay
Malme-3M = experiment: Growth inhibition of human MALME-3M cells at 10 uM by sulforhodamine B assay
SN12C = experiment: Growth inhibition of human SN12C cells at 10 uM by sulforhodamine B assay
ACHN = experiment: Growth inhibition of human ACHN cells at 10 uM by sulforhodamine B assay
SF-539 = experiment: Growth inhibition of human SF539 cells at 10 uM by sulforhodamine B assay
NCI-H23 = experiment: Growth inhibition of human NCI-H23 cells at 10 uM by sulforhodamine B assay
UO-31 = experiment: Growth inhibition of human UO31 cells at 10 uM by sulforhodamine B assay
UACC-257 = experiment: Growth inhibition of human UACC257 cells at 10 uM by sulforhodamine B assay
SK-OV-3 = experiment: Growth inhibition of human SKOV3 cells at 10 uM by sulforhodamine B assay
OVCAR-5 = experiment: Growth inhibition of human OVCAR5 cells at 10 uM by sulforhodamine B assay
NCI/ADR-RES = experiment: Growth inhibition of human NCI/ADR-RES cells at 10 uM by sulforhodamine B assay
HCC 2998 = experiment: Growth inhibition of human HCC2998 cells at 10 uM by sulforhodamine B assay
786-0 = experiment: Growth inhibition of human 786-0 cells at 10 uM by sulforhodamine B assay
SF-268 = experiment: Growth inhibition of human SF268 cells at 10 uM by sulforhodamine B assay
MCF7 = experiment: Growth inhibition of human MCF7 cells at 10 uM by sulforhodamine B assay
SK-MEL-28 = experiment: Growth inhibition of human SK-MEL-28 cells at 10 uM by sulforhodamine B assay
SNB-75 = experiment: Growth inhibition of human SNB75 cells at 10 uM by sulforhodamine B assay
COLO 205 = experiment: Growth inhibition of human COLO205 cells at 10 uM by sulforhodamine B assay
OVCAR-4 = experiment: Growth inhibition of human OVCAR4 cells at 10 uM by sulforhodamine B assay
HOP-92 = experiment: Growth inhibition of human HOP92 cells at 10 uM by sulforhodamine B assay
LOX IMVI = experiment: Growth inhibition of human LOXIMVI cells at 10 uM by sulforhodamine B assay
RPMI-8226 = experiment: Growth inhibition of human RPMI8226 cells at 10 uM by sulforhodamine B assay
MDA-MB-231 = experiment: Growth inhibition of human MDA-MB-231 cells at 10 uM by sulforhodamine B assay
MDA-MB-468 = experiment: Growth inhibition of human MDA-MB-468 cells at 10 uM by sulforhodamine B assay
TK-10 = experiment: Growth inhibition of human TK10 cells at 10 uM by sulforhodamine B assay
SW-620 = experiment: Growth inhibition of human SW620 cells at 10 uM by sulforhodamine B assay
NCI-H460 = experiment: Growth inhibition of human NCI-H460 cells at 10 uM by sulforhodamine B assay
SK-MEL-5 = experiment: Growth inhibition of human SK-MEL-5 cells at 10 uM by sulforhodamine B assay
A549 = experiment: Growth inhibition of human A549/ATCC cells at 10 uM by sulforhodamine B assay
DU-145 = experiment: Growth inhibition of human DU145 cells at 10 uM by sulforhodamine B assay
BT-549 = experiment: Growth inhibition of human BT549 cells at 10 uM by sulforhodamine B assay
HL-60(TB) = experiment: Growth inhibition of human HL-60(TB) cells at 10 uM by sulforhodamine B assay
HT-29 = experiment: Growth inhibition of human HT-29 cells at 10 uM by sulforhodamine B assay
UACC-62 = experiment: Growth inhibition of human UACC62 cells at 10 uM by sulforhodamine B assay
SNB-19 = experiment: Growth inhibition of human SNB19 cells at 10 uM by sulforhodamine B assay
MDA-MB-435 = experiment: Growth inhibition of human MDA-MB-435 cells at 10 uM by sulforhodamine B assay
HCT-116 = experiment: Growth inhibition of human HCT116 cells at 10 uM by sulforhodamine B assay
CAKI-1 = experiment: Growth inhibition of human Caki1 cells at 10 uM by sulforhodamine B assay
HCT-15 = experiment: Growth inhibition of human HCT15 cells at 10 uM by sulforhodamine B assay
SR = experiment: Growth inhibition of human SR cells at 10 uM by sulforhodamine B assay
T47D = experiment: Growth inhibition of human T47D cells at 10 uM by sulforhodamine B assay
HOP-62 = experiment: Growth inhibition of human HOP62 cells at 10 uM by sulforhodamine B assay
M14 = experiment: Growth inhibition of human M14 cells at 10 uM by sulforhodamine B assay

Measured: growth inhibition (GI)

C#CCn1c(-c2ccc(OC3CCCC3)c(OC)c2)nc(-c2ccccc2)c1-c1ccccc1
active: RXF 393 | MOLT-4 | A498 | OVCAR-8 | PC-3 | NCI-H226 | IGROV-1 | NCI-H322M | KM12 | OVCAR-3 | SK-MEL-2 | NCI-H522 | SF-295 | CCRF-CEM | Hs-578T | U-251 | K562 | Malme-3M | SN12C | ACHN | SF-539 | NCI-H23 | UO-31 | UACC-257 | SK-OV-3 | OVCAR-5 | NCI/ADR-RES | HCC 2998 | 786-0 | SF-268 | MCF7 | SK-MEL-28 | SNB-75 | COLO 205 | OVCAR-4 | HOP-92 | LOX IMVI | RPMI-8226 | MDA-MB-231 | MDA-MB-468 | TK-10 | SW-620 | NCI-H460 | SK-MEL-5 | A549 | DU-145 | BT-549 | HL-60(TB) | HT-29 | UACC-62 | SNB-19 | MDA-MB-435 | HCT-116 | CAKI-1 | HCT-15 | SR | T47D | HOP-62 | M14

COc1cc(-c2nc(-c3ccccc3)c(-c3ccccc3)n2Cc2ccccc2)ccc1OC1CCCCC1
active: RXF 393 | MOLT-4 | A498 | OVCAR-8 | PC-3 | NCI-H226 | IGROV-1 | NCI-H322M | KM12 | OVCAR-3 | SK-MEL-2 | NCI-H522 | SF-295 | CCRF-CEM | Hs-578T | U-251 | K562 | Malme-3M | SN12C | ACHN | SF-539 | NCI-H23 | UO-31 | UACC-257 | SK-OV-3 | OVCAR-5 | NCI/ADR-RES | HCC 2998 | 786-0 | SF-268 | MCF7 | SK-MEL-28 | SNB-75 | COLO 205 | OVCAR-4 | HOP-92 | LOX IMVI | RPMI-8226 | MDA-MB-231 | MDA-MB-468 | TK-10 | SW-620 | NCI-H460 | SK-MEL-5 | A549 | DU-145 | BT-549 | HL-60(TB) | HT-29 | UACC-62 | SNB-19 | MDA-MB-435 | HCT-116 | CAKI-1 | HCT-15 | SR | T47D | HOP-62 | M14
